Where two headings read alike, the source gives them in different places.
How the values were obtained:
[1] = system: Feacalibacterium prausnitzii; assay: Association of F. prausnitzii relative abundance at baseline with Cmax and AUC strata (logistic regression); design: species or system humans; details: liquid, solid, or combined; single dose phase I
Procedure: DNA was extracted from approximately 35 mg of each of the 451 fecal samples using the NucleoSpin Soil kit (Macherey-Nagel, 740780.250 M), following the manufacturer’s instructions. DNA yield was quantified using the Qubit 1X dsDNA Broad Range assay kit (Thermo Fisher Scientific, Q33266). For metagenomic shotgun sequencing, libraries were prepared with the MGIEasy Fast FS DNA Library Prep Set (MGI Tech Co., Ltd., 940-000030-00, Werheim, Germany), using 400 ng of DNA per sample. The library preparation process included DNA shearing for 12.5 min, followed by end repair, A-tailing, and magnetic bead-based cleanup. Adapter ligation and cleanup were then performed, followed by PCR amplification and magnetic bead-based size selection of the final library product. Library quality was assessed using the Qubit 1X dsDNA HS Assay Kit (Thermo Fisher Scientific, Q33231) and the Agilent High Sensitivity D1000 Assay Kit (Agilent Technologies, 5067–5584 and 5067–5585, Santa Clara, CA, USA). Pooled libraries were circularized, barcoded, and used as templates for DNA nanoball preparation. The nanoballs were then analyzed on the DNBSEQ-T7 platform (MGI Tech Co., Ltd.) using the DNBSEQ-T7RS High-throughput Sequencing Set (FCL PE150), according to the manufacturer’s guidelines.
Raw metagenomic reads underwent quality control to remove low-quality sequences, adapters, and contaminants using Fastp (version 0.23.2, default parameters). High-quality reads were filtered to exclude human reads (GRCh38_noalt_as) using Bowtie2 [38] (version 2.5.3). The quality-filtered reads were then aligned to the taxonomy database using MetaPhlAn (version 4.0.6, default parameters) to generate relative abundance profiles. For inclusion in the analysis, a species was required to be present in at least three samples.
For the seven metabolites AVE A, AVE B, AVA 2c, AVA 2f, AVA 2fd, AVA 2p, AVA 2pd analysed at phase I after the single dose of oat products, Cmax and area under the curve (AUC) were stratified based on less than the median or more or equal to the […]. Thereafter, for each metabolite, it was investigated whether the relative abundance of F. prausnitzii at baseline could predict the strata since this bacterium has previously been reported to be responsible for production of their dihydro-metabolites. Logistic regression with a binomial distribution and a logistic link function was used to separately analyze the liquid and solid products. When analyzing liquid and solid products together, a generalized linear mixed model with a binomial distribution and a logistic link function was used, with identity included as a random factor.

[2] = Plasma pharmacokinetics after a single dose of liquid or solid oat product (compartmental PK model); assay type: in vivo, humans; design: V/F: unit not given here; details: for Cmax / half-life / k el / Tmax: both sexes, oral; for Cmax / half-life / k el: human, plasma; for Cmax / half-life / k el / Tmax / T1/2 / ka / V/F / AUC(norm): single dose; for k el: elimination rate (Table 2), read-out: ke (converted); for Tmax: human plasma, derived from PK model; for V, population estimate (RSE%) / ka, population estimate (RSE%) / ke, population estimate (RSE%): Table S1 compartmental model; for ka: absorption rate (Table 2); for V/F: distribution volume over bioavailability; for AUC(norm): normalized for nmol intake
Description: A non-blinded, randomized two-way crossover study with two different oat products (solid or liquid) was designed to investigate the AVA and AVE PK after a single dose and after repeated dosing at three different doses, for respective food (Fig. 2). Since this is the first study of its kind, it is impossible to make any formal calculation of the number of subjects needed to show meaningful differences in plasma biomarker concentrations, since the variation is unknown. However, similar studies aimed for BFI discovery and validation of dose-response have typically used 5–30 subjects. We therefore considered 23 individuals as a good compromise between feasibility and possibilities to assess variation in biomarker concentrations, estimate pharmacokinetic parameters, dose response and performing modelling with good precision. A scientist not involved in the study, conducted the randomization using the RAR method (RandomizeR package) in R software environment and provided lists with allocated treatment sequences. The study was conducted in two phases. In the first phase, blood samples were drawn from 11 men and 12 women for 24 h after consumption of a single dose of either a solid or a liquid oat product on-site. Breakfast and lunch were also provided on-site. A single dose of solid (62 g of oat flakes) or liquid (196 mL of oat drink) containing individual AVAs and AVEs shown in Table 1 were consumed, respectively. Blood plasma samples were drawn for 24 h (0 h, 0.25 h, 0.5 h, 0.75 h, 1 h, 1.5 h, 2 h, 3 h, 4 h, 5 h, 6 h, 7 h, 8 h, 24 h). After the 24 h, at the second phase of the study, the corresponding product was further consumed three times per day for four days at either a low, medium, or high intake dose (98, 196 and 392 mL for liquid oats and 31, 62 and 123 g for oat flakes with corresponding contents of AVAs and AVEs (Table 1) in a Latin square design. Therefore, a total number of 8 participants (2 males and 6 females) were randomized to the low dose, 9 participants (3 males and 6 females) for medium dose and 6 participants (3males and 3 females) for the high dose. Participants consumed the provided products at home and were instructed to follow their habitual diets with restriction on the consumption of oat products. A list of relevant foods was provided as a guide. The oat flakes were pre-portioned into individual bags and could be consumed without heating, mixed with yoghurt, cottage cheese, sour milk or any liquid. Participants were instructed to consume the full amount, including the liquid or food the oats were mixed with. Liquid oat products were weighed prior consumption, and they were to be consumed without any additional food. In all cases the time of oat intake was recorded in a food journal. On the fifth day of phase II, a fasting sample was drawn. Fecal samples were collected at baseline and at the end of phase II of the intervention. Between each study period, there was a wash-out period of eight days where participants consumed their habitual diet. After the washout, participants started with a single dose and repeated dosing for the other product in the same way as for the first. The participants were instructed to avoid foods containing oats during the last three days prior to the start of the study and during the last three days of the wash-out period. Compliance was assessed based on information provided in a compliance journal during the study weeks as well as through 2-day food records. The oat products used in the study were provided to the participants. The flakes for the single dose were consumed with water ad lib and for the repeated dose they could be mixed with water, yoghurt, milk, sour milk or cottage cheese with the condition that all the amount of the oat product is consumed. The oat drink was consumed without any other product.
All blood samples were collected into EDTA-coated tubes by a trained nurse. […]

[3] = 62 g of oat flakes, solid oat product (62 g oat flakes)
[4] = 196 mL of oat drink, liquid oat product (196 mL oat drink)

association between F. prausnitzii abundance at baseline and Cmax and AUC [1] | SMILES | Cmax ([2]; 62 g of oat flakes, solid) [nM] | half-life ([2]; 62 g of oat flakes, solid) [h] | k el ([2]; 62 g of oat flakes, solid) [s⁻¹] | Cmax ([2]; 196 mL of oat drink, liquid) [nM] | half-life ([2]; 196 mL of oat drink, liquid) [h] | k el ([2]; 196 mL of oat drink, liquid) [s⁻¹] | Tmax [2, 3] [h] | Tmax [2, 4] [h] | V, population estimate (RSE%) ([2]; liquid) | ka, population estimate (RSE%) ([2]; liquid) | ke, population estimate (RSE%) ([2]; liquid) | T1/2 ([2]; liquid) | ka ([2]; liquid) | V/F ([2]; liquid) | V, population estimate (RSE%) ([2]; solid) | ka, population estimate (RSE%) ([2]; solid) | ke, population estimate (RSE%) ([2]; solid) | ka ([2]; solid) [h⁻¹] | V/F ([2]; solid) | other results
no significant associations | COc1cc(/C=C/C=C/C(=O)Nc2ccc(O)cc2C(=O)O)ccc1O [AVA 2fd] | 7.34 ± 0.78 | 1.65 ± 0.13 | 0.000117 | 2.46 ± 0.25 | 1.3 | 0.000144 | 1.53 ± 0.07 | 1.01 ± 0.04 | 210 (13) L | 3.6 (10) 1/h | 0.52 (14) 1/h | 1.33 ± 0.10 h | 3.6 ± 0.2^1 1/h | 211 ± 21^2 | 320 (22) L | 2.2 (10) 1/h | 0.42 (17) 1/h | 2.2 ± 0.12 | 314 ± 32 | –
no significant associations | O=C(/C=C/C=C/c1ccc(O)cc1)Nc1ccc(O)cc1C(=O)O [AVA 2pd] | 16.8 ± 1.78 | 2.63 ± 0.2 | 7.22e-05 | 3.1 ± 0.31 | 2.5 | 7.78e-05 | 2.31 ± 0.1 | 1.6 ± 0.07 | 130 (16) L | 2.4 (9) 1/h | 0.30 (13) 1/h | 2.45 ± 0.19 h | 2.40 ± 0.1^1 1/h | 131 ± 13^2 | 190 (22) L | 1.5 (10) 1/h | 0.27 (17) 1/h | 1.48 ± 0.10 | 189 ± 19 | –
– | CC1OC(OC2C(OC3CCC4(C)C(=CCC5C4CCC4(C)C5CC5OC6(CCC(C)(COC7OC(CO)C(O)C(O)C7O)O6)C(C)C54)C3)OC(CO)C(OC3OC(CO)C(O)C(O)C3O)C2O)C(O)C(O)C1O (centres unmarked) [AVE A, Avenacoside A] | 2.03 ± 0.22 | 3.32 ± 0.26 | 5.83e-05 | 1.31 ± 0.14 | 3.2 | 6.39e-05 | 1.78 ± 0.08 | 2.51 ± 0.11 | 5900 (3) L | 1.4 (3) 1/h | 0.21 (10) 1/h | 3.17 ± 0.24 h | 1.4 ± 0.1^1 1/h | 6718 ± 686^2 | 9700 (2) L | 2.7 (8) 1/h | 0.22 (6) 1/h | 2.3 ± 0.13 | 11,055 ± 1130 | –
– | CC1OC(OC2C(OC3CCC4(C)C(=CCC5C4CCC4(C)C5CC5OC6(CCC(C)(COC7OC(CO)C(O)C(O)C7O)O6)C(C)C54)C3)OC(CO)C(OC3OC(CO)C(O)C(OC4OC(CO)C(O)C(O)C4O)C3O)C2O)C(O)C(O)C1O (centres unmarked) [AVE B, Avenacoside B] | 0.64 ± 0.07 | 3.76 ± 0.29 | 5e-05 | 0.44 ± 0.05 | 2.5 | 7.5e-05 | 3.29 ± 0.14 | 2.98 ± 0.13 | 2200 (3) L | 0.41 (9) 1/h | 0.27 (3) 1/h | 2.56 ± 0.20^2 h | 0.41 ± 0.02 h⁻¹ | 2079 ± 212 | 2600 (21) L | 0.45 (22) 1/h | 0.19 (20) 1/h | 0.46 ± 0.03 | 2606 ± 266 | AUC(norm) ([2]; liquid): 1.8 ± 0.2 nM·h; AUC(norm) ([2]; solid): 2.1 ± 0.3 nM·h

Source: paper PMC12418703, “Avenanthramides and avenacosides as biomarkers of oat intake: a pharmacokinetic study of solid and liquid oat consumption under single and repeated dose conditions” (Nutrition Journal, 2025)
